Data from patent US10082499B2, “Short term isotope pulse labeling method for analysing metabolic products in biological samples” (Max-Delbrueck-Centrum fuer Molekulare Medizin, priority 2014, dated 2018).
Entries after “also recorded” stand apart in the source; their conditions may differ.

Test system: T98G cells
Assay: pSIRM analysis of glycolytic inhibition (13C-glucose pulse labeling, GC-MS)
Assay type: cell-based
Experimental: GC-MS measurement: Metabolite analysis was performed on a gas chromatography coupled to time of flight mass spectrometer (LECO-Pegasus III— TOF-MS-System, LECO), supplemented with an auto-sampler (MultiPurpose Sampler 2 XL, Gerstel). Samples and quantification standards were injected in split mode (split 1:5, injection volume: 1 ul,) in a temperature-controlled injector (CAS4, Gerstel) with a baffled glass-liner (Gerstel). The following temperature program was applied during sample injection: Initial temperature of 80° C. for 30 s followed by a ramp with 12° C./min to 120° C. and a second ramp with 7° C./min to 300° C. and final hold for 2 min. Gas chromatographic separation was performed on an Agilent 6890N (Agilent), equipped with a Varian VF-5 ms-column of 30 m length, 250 μm inner diameter and 0.25 μm film thickness (Varian). Helium was used as carrier gas with a flow rate of 1.2 mL/min. Gas chromatography was performed with the following temperature gradient: 2 min heating at 70° C., first temperature gradient with 5° C./min up to 120° C. and hold for 30 s, subsequently a second temperature increase of 7° C./min up to 350° C. with a hold time of 2 min. Spectra were recorded in a mass range of 60 to 600 u with 20 spectra/s at a detector voltage of 1750 V.
Data analysis: The vendor software ChromaTOF Version 4.42 (LECO Corp. St. Joseph—USA) was used for metabolite evaluation with the following parameter: baseline offset of 1, peak width of 4 s, signal/noise of 20, peak smoothing of 11 data-points. Retention indices were calculated based on retention index standards as described (Ref). GoIm Metabolome Database (GMD) provided peak identification. The quantification routine of ChromaTOF was used for external calibration based on the measured quantification standards. Exported csv-files included: Name, quant mass, retention index, 1st dimension retention time, 2nd dimension retention time, area, concentration, match, reverse, quant signal/noise, type, concentration units and the peak true spectrum in absolute values. For further data analysis the tool MetMax was developed in cooperation with the MPIMP in Potsdam-Golm (http://gmd.mpimp-golm.mpg.de/apps/metmax). MetMax provided of extraction of peak areas and quantities (retention analysis mode), and intensities of pre-defined mass ranges (isotope concentrator mode) from the exported csv-files. The in-house developed pSIRM-wizard enabled the determination of ^13C-label incorporation based on the exported data following the descriptions and equations stated in the paper.
Cell harvest: Growth media was removed from cells and cells were incubated in 5 ml of prewarmed (37° C.) wash-buffer (137 mM NaCl, 3 mM KCl, 5 mM HEPES, adjusted to a pH of 7.2-7.4) enriched with the same amount of glucose and glutamine as in the growth media (2.5 g/L and 4 mM respectively). For the metabolic labeling the wash-buffer is used as labeling buffer with glucose or glutamine replaced by their ^13C-counterpart. Cells were incubated for 3 minutes at 37° C. before harvest. The buffer was removed followed by an immediate addition of 5 ml of prechilled (−20 to −40° C.) 50% MeOH (with 2-4 μg/mL Cinnamic acid as internal standard) to the plate. Cells were scratched of the plates using cell-scraper and transferred to a falcon, which contain 1 ml of chloroform. Cell suspension was frozen in liquid nitrogen and stored at −80° C. until extraction. To extract cell metabolism the suspension was shaken for 30 minutes at 4° C., followed by a centrifugation for 10 minutes to perform phase separation. 4.5 ml of the upper, polar phase were transferred into a new falcon and dried under vacuum. On the next day the pellet was resuspended in 530 μl 20% Methanol (4° C.), shaken at 4° C. until completely solved, transferred into two eppies (2×250 μl) and dried under vacuum. The dried samples were stored at −20° C. and derivatized as described above. […]

[1] = 2 mM inhibitor 12 min + 3 min 13C-glucose
[2] = 2 mM inhibitor 12 min, then 3 min 13C-glucose in presence of inhibitor

Compound	13C-glucose incorporation (carbon flow) into citrate [1]	inhibitory effect on glycolysis [1]	isotope incorporation in pyruvate and lactate / pyruvate or lactate levels [1]	reduction of the 13C-fraction of hexose-phosphates [2]	inhibitory effect on glycolysis (10 mM inhibitor)	isotope incorporation rates in G6P (10 mM inhibitor)	reduction of glycolytic flow (10 mM inhibitor)	carbon flow downstream of GAPDH (2 mM inhibitor)	concentration of 3PGA [1]	labelled fraction of G6P and F6P [1]	total concentration of G6P and F6P (hexose phosphates) [1]	reduction of carbon-flow into pyruvate, lactate and citrate [2]
O=CC[C@@H](O)[C@H](O)[C@H](O)CO [2DG, 2-deoxyglucose]	extended; also recorded: increasing	negligible	affected only marginally; also recorded: did not affect	20%	stronger inhibition	not affected	up to 80%	–	–	–	–	–
O=C(O)C(=O)CBr [BrPyr]	–	nearly completely inhibited	–	–	–	–	–	strong decline	diminished below the detection limit	reduced	increased	around 100%
